Where “and” joins values, the source holds several entries; their conditions need not be identical. Equal values may be shown once.
Test system: herpes simplex virus (HSV) type 1
Test: Inactivation of herpes simplex virus in infected MRC-5 cells by alcohols (Example 25); for HSV - CPE after 44 hours with the detecting cell-layer: key: 0: no CPE; 1: a few; 2: several; 3: all cells infected with HSV
Type: cell-based
Conditions: for HSV - CPE after 44 hours with the detecting cell-layer: duplicate wells
Description: Ethanol is an accepted disinfectant for viruses with an envelope. The purpose of this study was to measure the inactivating effect of “short-chained alcohols” on virus-infected cells.
Four 96 well plates with confluent MRC-5 cell were infected with herpes simplex virus (HSV) type 1. After appearance of 50% cytopathic effect (CPE), the culture medium was removed, and rows of 12 wells were treated with 25 μl/well of the alcohols or buffer after the following scheme: The first row with undiluted, and the following with 96%, 90%, 80%, 70%, 60% and 50% alcohol, respectively—all dilutions performed in buffer (PBS). To the last row was added buffer. After 2, 4, 8, 16 and 32 min, respectively, two wells in each row were emptied and the cells overlaid with PBS. The plate was then frozen at —80° C. Afterwards the wells were seeded with a detection layer of MRC-5 cells and the plates were placed at 37° C. for 44 hours. Virus surviving the treatment with alcohol was detected by the appearance of CPE, characteristic for HSV in the detection monolayer.

## Butanol
50% alcohol in PBS, 2 min
  HSV - CPE after 44 hours with the detecting cell-layer: 0 and 2
50% alcohol in PBS, 4 min
  HSV - CPE after 44 hours with the detecting cell-layer: 2
50% alcohol in PBS, 8 min
  HSV - CPE after 44 hours with the detecting cell-layer: 2
50% alcohol in PBS, 16 min
  HSV - CPE after 44 hours with the detecting cell-layer: 0
50% alcohol in PBS, 32 min
  HSV - CPE after 44 hours with the detecting cell-layer: 1 and 0
60% alcohol in PBS, 2 min
  HSV - CPE after 44 hours with the detecting cell-layer: 0 and 2
60% alcohol in PBS, 4 min
  HSV - CPE after 44 hours with the detecting cell-layer: 2
60% alcohol in PBS, 8 min
  HSV - CPE after 44 hours with the detecting cell-layer: 2 and 0
60% alcohol in PBS, 16 min
  HSV - CPE after 44 hours with the detecting cell-layer: 0
60% alcohol in PBS, 32 min
  HSV - CPE after 44 hours with the detecting cell-layer: 1 and 0
70% alcohol in PBS, 2 min
  HSV - CPE after 44 hours with the detecting cell-layer: 0
70% alcohol in PBS, 4 min
  HSV - CPE after 44 hours with the detecting cell-layer: 0 and 1
70% alcohol in PBS, 8 min
  HSV - CPE after 44 hours with the detecting cell-layer: 1 and 0
70% alcohol in PBS, 16 min
  HSV - CPE after 44 hours with the detecting cell-layer: 0 and 1
70% alcohol in PBS, 32 min
  HSV - CPE after 44 hours with the detecting cell-layer: 1
80% alcohol in PBS, 2 min
  HSV - CPE after 44 hours with the detecting cell-layer: 0
80% alcohol in PBS, 4 min
  HSV - CPE after 44 hours with the detecting cell-layer: 0 and 1
80% alcohol in PBS, 8 min
  HSV - CPE after 44 hours with the detecting cell-layer: 1 and 0
80% alcohol in PBS, 16 min
  HSV - CPE after 44 hours with the detecting cell-layer: 0
80% alcohol in PBS, 32 min
  HSV - CPE after 44 hours with the detecting cell-layer: 1 and 0
90% alcohol in PBS, 2 min
  HSV - CPE after 44 hours with the detecting cell-layer: 0
90% alcohol in PBS, 4 min
  HSV - CPE after 44 hours with the detecting cell-layer: 0 and 1
90% alcohol in PBS, 8 min
  HSV - CPE after 44 hours with the detecting cell-layer: 0
90% alcohol in PBS, 16 min
  HSV - CPE after 44 hours with the detecting cell-layer: 1 and 0
90% alcohol in PBS, 32 min
  HSV - CPE after 44 hours with the detecting cell-layer: 0 and 3
96% alcohol in PBS, 2 min
  HSV - CPE after 44 hours with the detecting cell-layer: 0
96% alcohol in PBS, 4 min
  HSV - CPE after 44 hours with the detecting cell-layer: 0
96% alcohol in PBS, 8 min
  HSV - CPE after 44 hours with the detecting cell-layer: 0 and 2
96% alcohol in PBS, 16 min
  HSV - CPE after 44 hours with the detecting cell-layer: 0
96% alcohol in PBS, 32 min
  HSV - CPE after 44 hours with the detecting cell-layer: 0
HSV type 1 infected MRC-5 cells
  inactivation of herpes simplex virus (in words): able to inactivate herpes simplex virus even intracellular virus
Alcohol undiluted, 2 min with alcohol
  HSV - CPE after 44 hours with the detecting cell-layer: 0
Alcohol undiluted, 4 min
  HSV - CPE after 44 hours with the detecting cell-layer: 0
Alcohol undiluted, 8 min
  HSV - CPE after 44 hours with the detecting cell-layer: 0
Alcohol undiluted, 16 min
  HSV - CPE after 44 hours with the detecting cell-layer: 0
Alcohol undiluted, 32 min
  HSV - CPE after 44 hours with the detecting cell-layer: 0
